Test results from patent publication US20030130340A1, “Novel benzothiophene derivatives” (Daiichi Pharmaceutical Co. Ltd., priority 2000, published 2003).
Where a name gives a salt, the structure may show the parent alone.

Legend:
[1] = molecular target: T1, steroid 17α-hydroxylase and/or steroid C17-20 lyase (Rattus norvegicus, UniProt P11715); test: Measurement of steroid 17α-hydroxylase and/or steroid C17-20 lyase inhibitory activity (rat testis microsome, HPLC); assay type: biochemical; details: Enzyme source: rat testis microsome; test compound 300 nM; substrate 25 μM 17α-hydroxyprogesterone; NADPH 500 μM; 20 minutes at 37° C.
T1 construct: the testis of rats (SD, male) was homogenized and centrifuged to obtain microsome; from tissue; host or cells: rat (SD, male) testis microsomes
T1 sequence (P11715 1-507): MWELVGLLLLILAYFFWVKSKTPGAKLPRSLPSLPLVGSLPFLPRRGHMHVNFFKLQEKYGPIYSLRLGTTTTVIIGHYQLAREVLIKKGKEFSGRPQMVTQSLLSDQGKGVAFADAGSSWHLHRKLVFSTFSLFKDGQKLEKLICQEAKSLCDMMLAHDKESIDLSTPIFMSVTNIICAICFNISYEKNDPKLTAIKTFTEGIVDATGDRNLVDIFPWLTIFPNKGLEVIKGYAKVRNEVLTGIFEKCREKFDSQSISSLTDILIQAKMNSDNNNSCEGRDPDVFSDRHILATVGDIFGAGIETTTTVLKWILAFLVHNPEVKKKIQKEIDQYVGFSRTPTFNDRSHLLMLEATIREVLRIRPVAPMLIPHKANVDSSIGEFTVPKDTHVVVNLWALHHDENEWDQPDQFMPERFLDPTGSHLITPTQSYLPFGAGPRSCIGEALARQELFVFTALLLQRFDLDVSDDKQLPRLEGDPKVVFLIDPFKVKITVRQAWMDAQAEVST
Method: An experiment was carried out according to the method of T. Sergejew and R. W. Hartmann (J. Enzyme Inhibition, 8, 113(1994)). That is, the testis of rats (SD, male) was homogenized and centrifuged to obtain microsome. […] After the addition of 100 μl of microsome protein solution, the protein contentration was adjusted to 0.1 mg/ml by 50 mM phosphate buffer solution (pH 7.4), 140 μl of 125 nmol NADPH solution, and 10 μl of 6.25 nmol 17α-hydroxyprogesterone, the mixture was incubated for 20 minutes at 37° C. 50 μl of 1N hydrochloric acid and 1000 μl of ethyl acetate were sequentially added to the mixture. The mixture was shaken and centrifuged. The ethyl acetate layer was washed with 250 μl of 50 mM phosphate buffer solution (pH 7.4) and 50 μl of 1N hydrochloric acid, centrifuged, and concentrated. The concentrate was dissolved in 100 μl of acetonitrile. 10 μl of this solution was charged to high performance liquid chromatography. The amounts of the substrate and the product (androstenedione and testosterone) were measured to calculate the enzyme activity. In this experiment, a sample without the test compound was provided as a control group. Steroid 17α-hydroxylase and/or steroid C17-20-lyase inhibitory activity (%) was calculated by the following equation (1) using the amounts of the substrate and the product obtained.

SMILES | inhibition at 0.3 µM [1] [%] | melting point | Inhibitory activity (%) [1] [%]
Oc1ccc2c(-c3ccncc3)csc2c1 [Example 6, 3-(4-pyridyl)benzo[b]thiophen-6-ol] | 3 | 246 to 250 °C | –
COc1ccc2c(-c3ccccn3)csc2c1.Cl [Example 3, 2-[6-methoxybenzo[b]thiophen-3-yl]pyridine hydrochloride] | 9 | 205.5 to 207 °C (dec.) | –
Cl.FC(F)(F)c1ccccc1-c1ccc2c(-c3cccnc3)csc2c1 [Example 48, 3-{[6-(2-trifluoromethyl)phenyl]benzo[b]thiophen-3-yl}pyridine hydrochloride] | – | – | 54
c1cncc(-c2csc3cc(N4CCOCC4)ccc23)c1 [Example 55, 4-[3-(3-pyridyl)benzo[b]thiophen-6-yl]morpholine dihydrochloride] | 94 | – | –

Now from value to molecule, other results behind:

inhibition at 0.3 µM [1] [%] | melting point | SMILES | Inhibitory activity (%) [1] [%]
100 | 131.5 to 133 °C | c1cncc(-c2ccc3c(-c4cccnc4)csc3c2)c1 [Example 20, 3-[6-(3-pyridyl)benzo[b]thiophen-3-yl]pyridine] | –
100 | 188.5 to 189.5 °C | Oc1cccc(-c2ccc3c(-c4cccnc4)csc3c2)c1 [Example 17, 3-[3-(3-pyridyl)benzo[b]thiophen-6-yl]-phenol] | –
79 | – | CC(C)COc1ccc2c(-c3cccnc3)csc2c1 [Example 40, 3-(6-isobutyloxybenzo[b]thiophen-3-yl) pyridine hydrochloride] | –
30 | – | COc1ccc(-c2ccc3c(-c4cccnc4)csc3c2)cc1OC [Example 21, 3-[6-(3,4-dimethoxyphenyl)benzo[b]thiophen-3-yl]pyridine] | –
